Data set [1] relates to BT-474 xenograft tumors. The protocol:
Treatments began on day 1. […] All treatments were freshly prepared and given via intravenous tail vein injection. Injections were standardized at 150 μl per 20 g body weight of mice. […] Tumor sizes were recorded three times a week using caliper measurements (length×width2/2) and health of the animals was continuously monitored. Animals were euthanized when tumor volumes exceeded 1000 mm^3. Six weeks after beginning of the treatment, animals were euthanized by CO2 asphyxiation.

Data set [2] can be described thus: Plasma pharmacokinetics of free CPT in mice (comparison). Type of data set: in vivo. The following applies: after 8 h, CPT alone at 10 mg/kg, CD2F1 mice.
Procedure: Free CPT injected at 10 mg/kg into CD2F1 mice is shown as comparison. […] (B) Plasma concentration of unconjugated CPT as a function of time.
[3] abbreviates: Irinotecan 80 mg/kg i.v. once per week for 3 weeks, Nbegin 8.
[4] abbreviates: CPT 8 mg/kg i.v. once per week for 3 weeks, Nbegin 8.

Each structure is given as a SMILES string. Read-outs that look alike come from different tables or passages of the source.

`CCc1c2c(nc3ccc(OC(=O)N4CCC(N5CCCCC5)CC4)cc13)-c1cc3c(c(=O)n1C2)COC(=O)[C@]3(O)CC` [Irinotecan]: the “Tumor inhibition compared to control group” value in data set [1] (Irinotecan 80 mg/kg i.v. once per week for 3 weeks) was “non-significant tumor inhibition”. Also, in data set [1] (setting [3]), the “NNTRD (number of non-treatment related death)” value turned out to be 0, the “NTRD (number of treatment related death)” value is given as 1, the “Nend (number of animals surviving to end of study)” value is listed as 8/7 and the “Neuthan (number of animals euthanized due to exceeding tumor size limit of 1000 mm^3)” value is 0. In data set [1] (setting [3]), the “Nreg to zero (number of animals with tumors regressed to zero at the end of study)” value amounted to 0.

As for `CC[C@@]1(O)C(=O)OCc2c1cc1n(c2=O)Cc2cc3ccccc3nc2-1` [CPT, Camptothecin], the “Injected dose remaining in circulation” value in data set [2] is 0.01%. Further, in data set [1] (CPT 8 mg/kg i.v. once per week for 3 weeks), the “Tumor inhibition compared to control group” value is reported as “no tumor inhibition”. In data set [1] (setting [4]), the “NNTRD (number of non-treatment related death)” value was determined as 0, the “NTRD (number of treatment related death)” value turned out to be 4 and the “Nend (number of animals surviving to end of study)” value is given as 8/0.

The values above are taken from US9132097B2, “Nanoparticles stabilized with nitrophenylboronic acid compositions” (California Institute of Technology, priority 2013, dated 2015).
